Tested on: KRAS patient-derived spheroids with HUVEC/MSC, viability
Assay: Anticancer human tumor 519858-162-T-J1-PDC patient-derived colon adenocarcinoma cell line growth inhibition [KRAS2]
Settings: for viability, T/C: stronger effect = lower value
Summary of the method: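 KRAS-mutant tumor cells were grown as spheroids with HUVEC endothelial cells and human MSCs as stroma. Targeted agents were tested alone and with KRAS pathway inhibitors. Doses started at or near clinical Cmax, or 10 microM, descending half-log.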

[1] = curve of first compound, second compound 0.1 µM
[2] = curve of first compound, second compound 0.316 µM
[3] = curve of first compound, second compound 1 µM
[4] = curve of first compound, second compound 3.16 µM
[5] = curve of first compound, second compound 10 µM
[6] = second compound 0.1 µM, first compound 0.01 µM
[7] = second compound 0.1 µM, first compound 0.0316 µM
[8] = second compound 0.1 µM, first compound 0.1 µM
[9] = second compound 0.1 µM, first compound 0.316 µM
[10] = second compound 0.1 µM, first compound 1 µM
[11] = second compound 0.1 µM, first compound 3.16 µM
[12] = second compound 0.316 µM, first compound 0.01 µM
[13] = second compound 0.316 µM, first compound 0.0316 µM
[14] = second compound 0.316 µM, first compound 0.1 µM
[15] = second compound 0.316 µM, first compound 0.316 µM
[16] = second compound 0.316 µM, first compound 1 µM
[17] = second compound 0.316 µM, first compound 3.16 µM
[18] = second compound 1 µM, first compound 0.01 µM
[19] = second compound 1 µM, first compound 0.0316 µM
[20] = second compound 1 µM, first compound 0.1 µM
[21] = second compound 1 µM, first compound 0.316 µM
[22] = second compound 1 µM, first compound 1 µM
[23] = second compound 1 µM, first compound 3.16 µM
[24] = second compound 3.16 µM, first compound 0.01 µM
[25] = second compound 3.16 µM, first compound 0.0316 µM
[26] = second compound 3.16 µM, first compound 0.1 µM
[27] = second compound 3.16 µM, first compound 0.316 µM
[28] = second compound 3.16 µM, first compound 1 µM
[29] = second compound 3.16 µM, first compound 3.16 µM
[30] = second compound 10 µM, first compound 0.01 µM
[31] = second compound 10 µM, first compound 0.0316 µM
[32] = second compound 10 µM, first compound 0.1 µM
[33] = second compound 10 µM, first compound 0.316 µM
[34] = second compound 10 µM, first compound 1 µM
[35] = second compound 10 µM, first compound 3.16 µM
[36] = second compound 0.1 µM, first compound 10 µM
[37] = second compound 0.316 µM, first compound 10 µM
[38] = second compound 1 µM, first compound 10 µM
[39] = second compound 3.16 µM, first compound 10 µM
[40] = second compound 10 µM, first compound 10 µM
[41] = curve of first compound, second compound 0.0316 µM
[42] = second compound 0.0316 µM, first compound 0.0316 µM
[43] = second compound 0.0316 µM, first compound 0.1 µM
[44] = second compound 0.0316 µM, first compound 0.316 µM
[45] = second compound 0.0316 µM, first compound 1 µM
[46] = second compound 0.0316 µM, first compound 3.16 µM
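Further: compound exposure lasted seven days before readout.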
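Wherever viability, T/C is given: 100% = DMSO vehicle control viability.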

Structure (SMILES) | IC50 [1] | IC50 [2] | IC50 [3] | IC50 [4] | viability, T/C [7] | viability, T/C [8] | viability, T/C [9] | viability, T/C [10] | viability, T/C [13] | viability, T/C [14] | viability, T/C [15] | viability, T/C [16] | viability, T/C [19] | viability, T/C [20] | viability, T/C [21] | viability, T/C [22] | viability, T/C [25] | viability, T/C [26] | viability, T/C [27] | viability, T/C [28] | also measured
CC(=O)OC12COC1CC(O)C1(C)C(=O)C(O)C3=C(C)C(OC(=O)C(O)C(NC(=O)OC(C)(C)C)c4ccccc4)CC(O)(C(OC(=O)c4ccccc4)C21)C3(C)C (configuration not stated) + CNCc1ccccc1-c1csc(C(C)Nc2nc(C)nc3cc(OC)c(OC)cc23)c1 | > 3160 nM | > 3160 nM | > 3160 nM | 81.6 nM | 75% | 77% | 74.6% | 78% | 66.5% | 85.8% | 71.9% | 63.6% | 129% | 94.9% | 106% | 86.2% | 74.8% | 38.7% | 38% | 21.1% | IC50 [5]: < 10 nM; viability, T/C [6]: 96.1%; viability, T/C [11]: 62.5%; viability, T/C [12]: 76.2%; viability, T/C [17]: 73.9%; viability, T/C [18]: 80.8%; viability, T/C [23]: 68.5%; viability, T/C [24]: 117%; viability, T/C [29]: 80.8%; viability, T/C [30]: 43.4%; viability, T/C [31]: 1.29%; viability, T/C [32]: 10.6%; viability, T/C [33]: 8.61%; viability, T/C [34]: 86.4%; viability, T/C [35]: 2.58%
CC(C)NCC(C(=O)N1CCN(c2ncnc3c2C(C)CC3O)CC1)c1ccc(Cl)cc1 (configuration not stated) + CC1OCC2(CCN(c3cnc(Sc4ccnc(N)c4Cl)c(N)n3)CC2)C1N | > 10000 nM | > 10000 nM | > 10000 nM | > 10000 nM | 83.1% | 84.9% | 54.9% | 61.9% | 93% | 55.3% | 55.9% | 44% | 77% | 71.9% | 58.7% | 62% | 59.7% | 70.9% | 56.1% | 55.2% | IC50 [5]: > 10000 nM; viability, T/C [11]: 64%; viability, T/C [36]: 88.8%; viability, T/C [17]: 60.1%; viability, T/C [37]: 70.9%; viability, T/C [23]: 59.2%; viability, T/C [38]: 69.3%; viability, T/C [29]: 51.8%; viability, T/C [39]: 61%; viability, T/C [31]: 69.5%; viability, T/C [32]: 56.3%; viability, T/C [33]: 65.9%; viability, T/C [34]: 66.1%; viability, T/C [35]: 68.9%; viability, T/C [40]: 56.4%
CCNC(=O)CC1N=C(c2ccc(Cl)cc2)c2cc(OC)ccc2-n2c(C)nnc21 (configuration not stated) |  |  |  |  |  |  |  |  |  |  |  |  |  |  |  |  |  |  |  |  | viability, T/C (compound 1 µM): 52.7% [middle of 5 runs]; IC50 (curve of compound): 1.08 µM [middle of 4 runs]
COc1cc2nccc(Oc3ccc(NC(=O)C4(C(=O)Nc5ccc(F)cc5)CC4)cc3)c2cc1OC + CNCc1ccccc1-c1csc(C(C)Nc2nc(C)nc3cc(OC)c(OC)cc23)c1 | > 10000 nM | > 10000 nM | > 10000 nM | 3460 nM | 92.8% | 93.2% | 81.7% | 94% | 91.4% | 96.5% | 88% | 90.1% | 67.1% | 81.8% | 61.6% | 50.1% | 39.9% | 55.6% | 44.5% | 38.1% | IC50 [5]: < 31.6 nM; viability, T/C [11]: 107%; viability, T/C [36]: 146%; viability, T/C [17]: 98.1%; viability, T/C [37]: 132%; viability, T/C [23]: 106%; viability, T/C [38]: 100%; viability, T/C [29]: 95%; viability, T/C [39]: 0.54%; viability, T/C [31]: 1.01%; viability, T/C [32]: 0.42%; viability, T/C [33]: 0.68%; viability, T/C [34]: 1.44%; viability, T/C [35]: 0.37%; viability, T/C [40]: 0.36%
CCN1CCN(Cc2ccc(Nc3ncc(F)c(-c4cc(F)c5nc(C)n(C(C)C)c5c4)n3)nc2)CC1 + CC1OCC2(CCN(c3cnc(Sc4ccnc(N)c4Cl)c(N)n3)CC2)C1N | 735 nM | > 1000 nM | 162 nM | < 3.16 nM | 103% | 60.1% | 81.7% | 38.7% | 69.1% | 63.2% | 64.2% | 40.6% | 75.5% | 49.4% | 43.1% | 24.3% | 57.9% | 41.7% | 30.9% | 29.4% | IC50 [5]: 47.8 nM; viability, T/C (second compound 0.1 µM, first compound 0.00316 µM): 80.7%; viability, T/C [6]: 79%; viability, T/C (second compound 0.316 µM, first compound 0.00316 µM): 59.2%; viability, T/C [12]: 63.5%; viability, T/C (second compound 1 µM, first compound 0.00316 µM): 49.9%; viability, T/C [18]: 67.8%; viability, T/C (second compound 3.16 µM, first compound 0.00316 µM): 49.7%; viability, T/C [24]: 40.7%; viability, T/C (second compound 10 µM, first compound 0.00316 µM): 68.1%; viability, T/C [30]: 57.4%; viability, T/C [31]: 48.2%; viability, T/C [32]: 50%; viability, T/C [33]: 39.9%; viability, T/C [34]: 29.2%
O=C(c1cc(Cc2n[nH]c(=O)c3ccccc23)ccc1F)N1CCN(C(=O)C2CC2)CC1 + C=CC(=O)N1CCN(c2nc(OCC3CCCN3C)nc3c2CCN(c2cccc4cccc(C)c24)C3)CC1CC#N | > 10000 nM | > 10000 nM | > 10000 nM | > 10000 nM | 72.9% | 115% | 102% | 101% | 70.3% | 94.5% | 83.7% | 84.5% | 91.2% | 71.3% | 112% | 97.5% | 79.2% | 69.4% | 60.8% | 85.6% | IC50 [41]: > 10000 nM; viability, T/C [42]: 82.5%; viability, T/C [43]: 90.2%; viability, T/C [44]: 80.3%; viability, T/C [45]: 86.8%; viability, T/C [46]: 71.2%; viability, T/C (second compound 0.0316 µM, first compound 10 µM): 93.3%; viability, T/C [11]: 102%; viability, T/C [36]: 101%; viability, T/C [17]: 85.4%; viability, T/C [37]: 98.7%; viability, T/C [23]: 86.9%; viability, T/C [38]: 96.9%; viability, T/C [29]: 98%; viability, T/C [39]: 80.2%
CC1COCCN1c1cc(-c2ccnn2C)c2ccnc(-c3ccn[nH]3)c2n1 (configuration not stated) + C=CC(=O)N1CCN(c2nc(OCC3CCCN3C)nc3c2CCN(c2cccc4cccc(C)c24)C3)CC1CC#N | 434 nM | 813 nM | 470 nM | < 10 nM | 74% | 73.3% | 51.6% | 50.3% | 72.7% | 71.2% | 69.5% | 45.7% | 58.3% | 84.5% | 58.6% | 33.9% | 64.3% | 24.3% | 29.5% | 30.7% | IC50 [41]: 2390 nM; viability, T/C (second compound 0.0316 µM, first compound 0.01 µM): 98.8%; viability, T/C [42]: 78.5%; viability, T/C [43]: 78.3%; viability, T/C [44]: 69.2%; viability, T/C [45]: 74.9%; viability, T/C [46]: 40.7%; viability, T/C [6]: 115%; viability, T/C [11]: 28.4%; viability, T/C [12]: 78.5%; viability, T/C [17]: 33.2%; viability, T/C [18]: 83.4%; viability, T/C [23]: 26.7%; viability, T/C [24]: 38.3%; viability, T/C [29]: 13.2%

Reference: PubChem BioAssay AID1963872 (Molecular Pharmacology Branch, DTP, NCI, 2024)
